Assay results from patent US11053475B2, “Methods of expanding hematopoietic stem cells, compositions, and methods of use thereof” (WISCONSIN ALUMNI RESEARCH FOUNDATION, priority 2015, dated 2021).

Columns and labels:
[1] = tested on: Lin- hematopoietic precursors from E14.5 fetal livers; experiment: Erythroid maturation (CD71/Ter119, R1-R5) of E14.5 fetal liver hematopoietic precursors, flow cytometry; type: cell-based, mouse; settings: Lin- HSPCs from fetal liver, DMSO as control, 3 days
Procedure: Primary erythroid precursor cell isolation. Primary erythroid precursors were isolated from E14.5 fetal livers using the EasySep™ negative selection Mouse Hematopoietic Progenitor Cell Enrichment Kit (StemCell Technologies). Briefly, fetal livers were dissociated by pipetting and resuspended at 5×10^7 cell/ml in PBS containing 2% FBS, 2.5 mM EDTA, and 10 mM glucose. EasySep™ Mouse Hematopoietic Progenitor Cell Enrichment Cocktail was added at 50 μg/ml supplemented with 2.5 μg/ml biotin-conjugated CD71 antibody (eBioscience). After 15 min incubation on ice, the cells were washed by centrifugation for […] at 1200 rpm at 4° C. and resuspended at 5×10^7 cell/ml in PBS containing 2% FBS, 2.5 mM EDTA, and 10 mM glucose, and EasySep™ Biotin Selection Cocktail was added at 100 μg/ml. After 15 min incubation at 4° C., EasySep™ Mouse Progenitor Magnetic Microparticles were added at 50 μg/ml. […]
(§1) Flow cytometry. […] APC-conjugated antibody CD31 (MEC13.3, Biolegend), PE-conjugated antibody c-Kit (2B8, eBioscience), PerCP-Cy5.5-conjugated antibody Scal (D7, eBioscience), APC-conjugated antibody Ter119 (TER119, eBioscience) and PE-conjugated CD71 (R17217, eBioscience) were used for flow cytometry and Fluorescence Activated Cell Sorting (FACS). Samples were analyzed on a FACSAria™ II cell sorter (BD Biosciences). […]

Gata2 expression = experiment: RT-PCR and Western blot of Gata2/GATA-2 and GATA-2 target genes in fetal liver cells and FACS-sorted R2 cells; type: cell-based, mouse; settings: total fetal liver cells, compound treatment, 72 h
Procedure: Cell culture. G1E-ER-GATA-1 cells were cultured with or without 1 μM estradiol as previously described. Fetal liver erythroid precursor cells were cultured and maintained at a density of 2.5×10^5−1×10^6 cells/ml in StemPro®-34 (Gibco) supplemented with 10% nutrient supplement (Gibco), 2 mM L-glutamine (Cellgro), 1% Penicillin/streptomycin (Cellgro), 100 μM monothioglycerol (Sigma-Aldrich), 1 μM dexamethasone (Sigma-Aldrich), 0.5 U/ml of erythropoietin, and 1% conditioned medium from a kit ligand-producing CHO cell line for expansion. Cells were cultured in a humidified incubator at 37° C. (5% carbon dioxide).
Quantitative real-time RT-PCR. […] Real-time PCR was performed with SYBR green master mix (Applied Biosystems) and Product accumulation was monitored by SYBR green fluorescence using either a StepOnePlus™ or Viia™7 instrument (Applied Biosystems). Relative expression was determined from a standard curve of serial dilutions of cDNA samples, and values were normalized to 18S RNA expression. […]
as §1, with “(FACS).” for “(FACS). Samples were analyzed on a FACSAria™ II cell sorter (BD Biosciences).”

## CCCCCCCCCCCCC/C=C/[C@@H](O)C(N)CO[C@H]1O[C@H](CO)[C@@H](O[C@@H]2O[C@H](CO)[C@H](O)[C@H](O)[C@H]2O)[C@H](O)[C@@H]1O (stereo partly drawn) [lactosylsphingosine]
[1]
  activity on erythropoiesis (flow analysis, R1-R5), compared with psychosine: not

## CCCCCCCCCCCCC/C=C/C(O)C(N)CO[C@@H]1O[C@H](CO)[C@H](O)[C@H](O)[C@H]1O (stereo partly drawn) [psychosine, galactosylsphingosine]
Gata2 expression
  Gata2 mRNA level vs DMSO-treated control: 2-3 fold
  Gata2 primary transcript level vs DMSO-treated control: 2-3 fold
